The source of these data is paper PMC11900394, “1-Pyrene Carboxylic Acid: An Internalization Enhancer for Short Oligoarginines” (International Journal of Molecular Sciences, 2025).

Data set [1] has as its system MDA-MB-231 cells. Description: In vitro cytostatic activity, Alamar-blue assay. It counts as cell-based, human. To be noted: 3 h treatment, then 3 days in serum-containing medium, four parallels, two independent experiments, read-out: IC50 ± SD, cytostatic activity. Here is the method:
The in vitro measurements were carried out on 96-well plates containing 5 × 10^3 MDA-MB-231 cells per well. The cells were incubated for 24 h at 37 °C. The measurement started with treating these cells with the solutions of compounds for 3 h, where the final volume was 200 μL. The cytostatic activity was measured on a broad spectrum of concentrations between 0.000128 and 100 μM. Serum-free medium was used on cells for 3 h at 37 °C as control. After treatment, the compounds were washed out using a serum-free medium twice. The cells were then cultured for 72 h in a medium with serum. Alamar-blue (Resazurim) assay was used to determine the ratio of live cells and thus the IC50. Briefly, Alamar-blue solution (22.5 μL, 0.15 mg/mL in PBS (pH = 7)) was added to the cells. Synergy H4 multimode microplate reader (BioTek, Winooski, VT, USA) was used to determine the fluorescence (at λ = 530/30 nm and 610/10 nm) after 4 h incubation. Cytostasis was calculated as Cytostatic effect (%) = [1 − (ODtreated/ODcontrol)] × 100; where ODtreated and ODcontrol correspond to the optical densities of the treated and untreated cells, respectively. […] The curves were defined using MicrocalTM Origin (version 8.0, OriginLab, Northampton, MA, USA) software: cytostasis was plotted as a function of concentration, fitted to a sigmoidal curve, and the IC50 value was determined. […]

The test system of data set [2] is MDA-MB-231 cells. The data set is described as follows: Intracellular localization by confocal laser scanning microscopy. The conditions noted are these: MDA-MB-231, 5 μM, 15, 45 and 90 min; CLSM. It counts as cell-based, human.
For data set [3], the system named is MDA-MB-231 cells. The conditions noted are these: ref [31], read-out: IC50, cytostatic activity; cited from earlier work. The source says: Table 2 The cytostatic activity of peptide-drug conjugates on MDA-MB-231. | column: IC50 ± SD (µM) * / MDA-MB-231

Read-outs that look alike come from different tables or passages of the source. Numbered stars: 1 amine (or outer) side, 2 acyl side, 3 side chain; on linkers, the order of the positions; unused ones are H or OH. Side chains are listed from the residue outwards. Peptide text beside a SMILES is read from it. * marks the point of attachment. Daunorubicin = COc1cccc2c1C(=O)c1c(O)c3c(c(O)c1C2=O)C[C@@](O)(C(C)=O)C[C@@H]3O[C@H]1C[C@H](N*)[C@H](O)[C@H](C)O1; 1Pyrenoyl = O=C(c1ccc2ccc3cccc4ccc1c2c34)*; Suc = O=C(CCC(=O)[*:2])[*:1]

Regarding `COc1cccc2c1C(=O)c1c(O)c3c(c(O)c1C2=O)C[C@@](O)(C(C)=O)C[C@@H]3O[C@H]1C[C@H](NC(=O)CCC(=O)NCCCC[C@H](NC(=O)[C@H](CCCNC(=N)N)NC(=O)[C@H](CCCNC(=N)N)NC(=O)[C@H](CCCNC(=N)N)NC(=O)[C@H](CCCNC(=N)N)NC(=O)[C@H](CCCNC(=N)N)NC(=O)[C@H](CCCNC(=N)N)NC(=O)[C@H](CCCNC(=N)N)NC(=O)[C@H](CCCNC(=N)N)NC(=O)c2ccc3ccc4cccc5ccc2c3c45)C(N)=O)[C@H](O)[C@H](C)O1` [PCA-Arg8-Lys(DauSuc)], the IC50 in the data set with MDA-MB-231 cells [1] was found to be 28.1 ± 7.5 µM.

Take `COc1cccc2c1C(=O)c1c(O)c3c(c(O)c1C2=O)C[C@@](O)(C(C)=O)C[C@@H]3O[C@H]1C[C@H](NC(=O)CCC(=O)N[C@@H](CCCNC(=N)N)C(=O)N[C@@H](CCCNC(=N)N)C(=O)N[C@@H](CCCNC(=N)N)C(=O)N[C@@H](CCCNC(=N)N)C(=O)N[C@@H](CCCNC(=N)N)C(=O)N[C@@H](CCCNC(=N)N)C(=O)N[C@@H](CCCNC(=N)N)C(=O)N[C@@H](CCCNC(=N)N)C(=O)N[C@@H](CCCCNC(=O)c2ccc3ccc4cccc5ccc2c3c45)C(N)=O)[C@H](O)[C@H](C)O1` [DauSuc-Arg8-Lys(PCA)]: the IC50 in the data set on MDA-MB-231 cells [1] was found to be 23.7 ± 4.3 µM. Regarding `COc1cccc2c1C(=O)c1c(O)c3c(c(O)c1C2=O)C[C@@](O)(C(C)=O)C[C@@H]3O[C@H]1C[C@H](NC(=O)CCC(=O)NCCCC[C@H](NC(=O)[C@H](CCCNC(=N)N)NC(=O)[C@H](CCCNC(=N)N)NC(=O)[C@H](CCCNC(=N)N)NC(=O)[C@H](CCCNC(=N)N)NC(=O)[C@H](Cc2c[nH]c3ccccc23)NC(=O)c2ccc3ccc4cccc5ccc2c3c45)C(N)=O)[C@H](O)[C@H](C)O1` [PCA-Trp-Arg4-Lys(DauSuc)] (1Pyrenoyl-WRRRRK([Suc-Daunorubicin])-NH2), in the data set on MDA-MB-231 cells [2], the “Internalization of DauSuc conjugates (Dau fluorescence)” value is “very efficient internalization”. For succinylated daunomycin [DauSuc], the IC50 in the data set with MDA-MB-231 cells [3] is more than 100 µM.
